Assay results reported in PubChem BioAssay AID220 (DTP/NCI, 2004).
Several values for one entry are separate records, joined by “and”; a condition that tells them apart may be missing. Equal values may be shown once. Inconclusive results are not listed.

System: CD8F1 mice, subcutaneous mammary adenocarcinoma, T/C%
Test: NCI In Vivo Anticancer Drug Screen. Data for tumor model Mammary Adenocarcinoma CD8F1 (subcutaneous) in CD8F1
Conditions: higher = larger tumour
Summary of the method: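 Transplantable tumors were established in mice, animals were dosed with compound or vehicle, and survival or tumor size was then measured in both groups. The treated result was divided by the control result.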

[1] = endpoint: median tumor weight (est.), dose: 25.0 mg/kg/injection, schedule: Q07DX005 (ip), vehicle: saline with Tween-80
[2] = endpoint: median tumor weight (est.), dose: 100.0 mg/kg/injection, schedule: Q07DX005 (ip), vehicle: saline with Tween-80
[3] = endpoint: median tumor weight (est.), dose: 12.5 mg/kg/injection, schedule: Q07DX005 (ip), vehicle: saline
[4] = endpoint: median tumor weight (est.), dose: 25.0 mg/kg/injection, schedule: Q07DX005 (ip), vehicle: saline
[5] = endpoint: median tumor weight (est.), dose: 50.0 mg/kg/injection, schedule: Q07DX005 (ip), vehicle: saline
[6] = endpoint: median tumor weight (est.), dose: 100.0 mg/kg/injection, schedule: Q07DX005 (ip), vehicle: saline
[7] = endpoint: median tumor weight change, dose: 62.5 mg/kg/injection, schedule: Q01DX001 (ip), vehicle: saline with Tween-80
[8] = endpoint: median tumor weight change, dose: 125.0 mg/kg/injection, schedule: Q01DX001 (ip), vehicle: saline with Tween-80
[9] = endpoint: median tumor weight change, dose: 250.0 mg/kg/injection, schedule: Q01DX001 (ip), vehicle: saline with Tween-80
[10] = endpoint: median tumor weight change, dose: 500.0 mg/kg/injection, schedule: Q01DX001 (ip), vehicle: saline with Tween-80

For `Oc1cc2ccccc2c(-c2c(O)c(O)cc3ccccc23)c1O`, the T/C [1] was 67 % of control, the T/C [2] was 55 % of control and the T/C (endpoint: median tumor weight (est.), dose: 200.0 mg/kg/injection, schedule: Q07DX005 (ip), vehicle: saline with Tween-80) was 109 % of control.

In the case of `C(COCCOCC1CO1)OCCOCC1CO1` (stereo unspecified), the T/C (endpoint: median tumor weight (est.), dose: 12.5 mg/kg/injection, schedule: Q07DX005 (ip), vehicle: saline with Tween-80) is reported as 69 % of control, the T/C [1] is reported as 91 % of control and the T/C (endpoint: median tumor weight (est.), dose: 50.0 mg/kg/injection, schedule: Q07DX005 (ip), vehicle: saline with Tween-80) is reported as 68 % of control. The T/C [2] was 110 % of control and the T/C (endpoint: median tumor weight (est.), dose: 400.0 mg/kg/injection, schedule: Q07DX005 (ip), vehicle: saline with Tween-80) was 112 % of control.

In the case of `C[n+]1c(-c2cccc(OCCOCCOc3cccc(-c4c5cc(N)ccc5c5ccc(N)cc5[n+]4C)c3)c2)c2cc(N)ccc2c2ccc(N)cc21`, the T/C (endpoint: median tumor weight change, dose: 5.0 mg/kg/injection, schedule: Q01DX001 (ip), vehicle: water) is reported as 63 % of control, the T/C (endpoint: median tumor weight change, dose: 10.0 mg/kg/injection, schedule: Q01DX001 (ip), vehicle: water) is reported as 72 % of control and the T/C (endpoint: median tumor weight change, dose: 40.0 mg/kg/injection, schedule: Q01DX001 (ip), vehicle: water) is reported as 60 % of control.

In the case of `NC(=O)c1cn(C2OC(CO)C(O)C2O)c2ncnc(N)c12` (stereo unspecified), the T/C (endpoint: median tumor weight (est.), dose: 1.0 mg/kg/injection, schedule: Q07DX005 (ip), vehicle: suspension in saline) is reported as 63 % of control, the T/C (endpoint: median tumor weight (est.), dose: 2.0 mg/kg/injection, schedule: Q07DX005 (ip), vehicle: suspension in saline) is reported as 27 % of control and 45 % of control and the T/C (endpoint: median tumor weight change, dose: 0.25 mg/kg/injection, schedule: Q01DX001 (ip), vehicle: saline) is reported as 121 % of control. The T/C (endpoint: median tumor weight change, dose: 0.5 mg/kg/injection, schedule: Q01DX001 (ip), vehicle: saline) was 91 % of control, the T/C (endpoint: median tumor weight change, dose: 1.0 mg/kg/injection, schedule: Q01DX001 (ip), vehicle: saline) was 81 % of control and the T/C (endpoint: median tumor weight change, dose: 1.25 mg/kg/injection, schedule: Q01DX001 (ip), vehicle: suspension in saline) was 88 % of control. For the same compound, the T/C (endpoint: median tumor weight change, dose: 2.0 mg/kg/injection, schedule: Q01DX001 (ip), vehicle: saline) was 107 % of control, the T/C (endpoint: median tumor weight change, dose: 2.5 mg/kg/injection, schedule: Q01DX001 (ip), vehicle: suspension in saline) was 102 % of control and the T/C (endpoint: median tumor weight change, dose: 4.0 mg/kg/injection, schedule: Q01DX001 (ip), vehicle: saline) was 95 % of control. For the same compound, the T/C (endpoint: median tumor weight change, dose: 5.0 mg/kg/injection, schedule: Q01DX001 (ip), vehicle: suspension in saline) was 70 % of control and the T/C (endpoint: median tumor weight change, dose: 8.0 mg/kg/injection, schedule: Q01DX001 (ip), vehicle: saline) was 79 % of control.

In the case of `O=c1[nH]c(=O)n(C2CC(O)C(CO)O2)cc1C(F)(F)F` (stereo unspecified), the T/C (endpoint: mean tumor weight, dose: 125.0 mg/kg/injection, schedule: Q07DX005 (ip), vehicle: saline) is reported as 65 % of control, the T/C (endpoint: mean tumor weight, dose: 250.0 mg/kg/injection, schedule: Q07DX005 (ip), vehicle: saline) is reported as 84 % of control and the T/C (endpoint: mean tumor weight, dose: 250.0 mg/kg/injection, schedule: Q07DX008 (ip), vehicle: saline) is reported as 184 % of control. The T/C (endpoint: mean tumor weight, dose: 500.0 mg/kg/injection, schedule: Q07DX005 (ip), vehicle: saline) was 59 % of control, the T/C (endpoint: mean tumor weight, dose: 500.0 mg/kg/injection, schedule: Q07DX008 (ip), vehicle: saline) was 55 % of control and the T/C (endpoint: mean tumor weight, dose: 750.0 mg/kg/injection, schedule: Q07DX008 (ip), vehicle: saline) was 68 % of control. For the same compound, the T/C (endpoint: median tumor weight (est.), dose: 12.5 mg/kg/injection, schedule: Q07DX005 (ip), vehicle: suspension in saline) was 28 % of control, the T/C (endpoint: median tumor weight (est.), dose: 250.0 mg/kg/injection, schedule: Q07DX005 (ip), vehicle: suspension in saline) was 100 % of control and the T/C (endpoint: median tumor weight (est.), dose: 500.0 mg/kg/injection, schedule: Q07DX005 (ip), vehicle: suspension in saline) was 26 % of control.

With `O=C(CCl)NC(Cc1ccc(N(CCCl)CCCl)cc1)C(=O)O` (stereo unspecified) the T/C (endpoint: median tumor weight (est.), dose: 2.0 mg/kg/injection, schedule: Q01DX001 (ip), vehicle: Klucel (hydroxypropylcellulose) (HPC)) was 93 % of control, the T/C (endpoint: median tumor weight (est.), dose: 4.0 mg/kg/injection, schedule: Q01DX001 (ip), vehicle: Klucel (hydroxypropylcellulose) (HPC)) was 54 % of control and the T/C (endpoint: median tumor weight (est.), dose: 8.0 mg/kg/injection, schedule: Q01DX001 (ip), vehicle: Klucel (hydroxypropylcellulose) (HPC)) was 75 % of control and 82 % of control. For the same compound, the T/C (endpoint: median tumor weight (est.), dose: 16.0 mg/kg/injection, schedule: Q01DX001 (ip), vehicle: Klucel (hydroxypropylcellulose) (HPC)) was 48 % of control and 60 % of control, the T/C (endpoint: median tumor weight (est.), dose: 32.0 mg/kg/injection, schedule: Q01DX001 (ip), vehicle: Klucel (hydroxypropylcellulose) (HPC)) was 60 % of control and 62 % of control and the T/C (endpoint: median tumor weight (est.), dose: 64.0 mg/kg/injection, schedule: Q01DX001 (ip), vehicle: Klucel (hydroxypropylcellulose) (HPC)) was 19 % of control and 43 % of control.

For `N=C(N)SCc1cccc2c(=O)cc(-c3ccccc3)oc12`, the T/C (endpoint: median tumor weight change, dose: 125.0 mg/kg/injection, schedule: Q01DX001 (ip), vehicle: suspension in saline) was 151 % of control, the T/C (endpoint: median tumor weight change, dose: 250.0 mg/kg/injection, schedule: Q01DX001 (ip), vehicle: suspension in saline) was 151 % of control and the T/C (endpoint: median tumor weight change, dose: 500.0 mg/kg/injection, schedule: Q01DX001 (ip), vehicle: suspension in saline) was 106 % of control. For the same compound, the T/C (endpoint: median tumor weight change, dose: 1000.0 mg/kg/injection, schedule: Q01DX001 (ip), vehicle: suspension in saline) was 123 % of control.

`O=c1[nH]c(=O)c2nc(-c3cccnc3)cnc2[nH]1` was tested, and the T/C [3] was 122 % of control, the T/C [4] was 93 % of control and the T/C [5] was 58 % of control. The T/C [6] was 93 % of control, the T/C (endpoint: median tumor weight (est.), dose: 200.0 mg/kg/injection, schedule: Q07DX005 (ip), vehicle: saline) was 90 % of control and the T/C (endpoint: median tumor weight (est.), dose: 400.0 mg/kg/injection, schedule: Q07DX005 (ip), vehicle: saline) was 62 % of control.

For `CNc1nc(N(C)C)nc(N(C)C)n1`, the T/C (endpoint: median tumor weight (est.), dose: 3.12 mg/kg/injection, schedule: Q07DX005 (ip), vehicle: saline) was 89 % of control, the T/C (endpoint: median tumor weight (est.), dose: 6.25 mg/kg/injection, schedule: Q07DX005 (ip), vehicle: saline) was 111 % of control and the T/C [3] was 75 % of control. The T/C (endpoint: median tumor weight (est.), dose: 12.5 mg/kg/injection, schedule: Q07DX005 (ip), vehicle: water) was 65 % of control, the T/C [4] was 108 % of control and the T/C (endpoint: median tumor weight (est.), dose: 25.0 mg/kg/injection, schedule: Q07DX005 (ip), vehicle: water) was 94 % of control. The T/C [5] was 63 % of control, the T/C (endpoint: median tumor weight (est.), dose: 50.0 mg/kg/injection, schedule: Q07DX005 (ip), vehicle: water) was 13 % of control and the T/C (endpoint: median tumor weight (est.), dose: 74.0 mg/kg/injection, schedule: Q07DX005 (ip), vehicle: other) was 33 % of control. The T/C [6] was 48 % of control, the T/C (endpoint: median tumor weight (est.), dose: 100.0 mg/kg/injection, schedule: Q07DX005 (ip), vehicle: water) was 28 % of control and the T/C (endpoint: median tumor weight (est.), dose: 148.0 mg/kg/injection, schedule: Q07DX005 (ip), vehicle: other) was 47 % of control. The T/C (endpoint: median tumor weight (est.), dose: 222.0 mg/kg/injection, schedule: Q07DX005 (ip), vehicle: other) was 7 % of control.

In the case of `CC1/C=C/C=C/CC/C=C/C=C/C=C/C=C/C(OC2OC(C)C(O)C(N)C2O)CC2OC(CC(O)C(O)CCC(O)CC(O)CC(O)CC(=O)OC(C)C(C)C1O)CC(O)C2C(=O)O` (stereo unspecified), the T/C (endpoint: median tumor weight change, dose: 31.25 mg/kg/injection, schedule: Q01DX001 (ip), vehicle: saline with Tween-80) is reported as 124 % of control and the T/C [7] is reported as 84 % of control.

`CC1(C)OC1CS(=O)c1ccccc1` (stereo unspecified) was tested, and the T/C [8] was 160 % of control, the T/C [9] was 83 % of control and 92 % of control and the T/C [10] was 72 % of control and 94 % of control.

For `ClCc1ccc2ccccc2n1`, the T/C [7] was 69 % of control, the T/C [8] was 54 % of control and the T/C [9] was 76 % of control.

For `CC1c2ccccc2CC(CCN(C)C)c2ccccc21` (stereo unspecified), the T/C (endpoint: median tumor weight change, dose: 1.95 mg/kg/injection, schedule: Q01DX001 (ip), vehicle: saline with Tween-80) was 76 % of control, the T/C (endpoint: median tumor weight change, dose: 3.9 mg/kg/injection, schedule: Q01DX001 (ip), vehicle: saline with Tween-80) was 71 % of control and the T/C (endpoint: median tumor weight change, dose: 7.8 mg/kg/injection, schedule: Q01DX001 (ip), vehicle: saline with Tween-80) was 87 % of control. For the same compound, the T/C (endpoint: median tumor weight change, dose: 15.62 mg/kg/injection, schedule: Q01DX001 (ip), vehicle: saline with Tween-80) was 73 % of control.

`Oc1c(Cl)cc(Cl)cc1C1N2CCCCC2C2c3cccn3-c3ccccc3N21` (stereo unspecified) was tested, and the T/C [8] was 69 % of control, the T/C [9] was 85 % of control and the T/C [10] was 58 % of control. The T/C (endpoint: median tumor weight change, dose: 1000.0 mg/kg/injection, schedule: Q01DX001 (ip), vehicle: saline with Tween-80) was 68 % of control and the T/C (endpoint: median tumor weight change, dose: 2000.0 mg/kg/injection, schedule: Q01DX001 (ip), vehicle: saline with Tween-80) was 79 % of control.

`CCN(CC)CCN1C(=O)C2C3C=CC(C2C1=O)C1C2C(=O)N(CCN(CC)CC)C(=O)C2C31` (stereo unspecified) was tested, and the T/C (endpoint: median tumor weight change, dose: 15.62 mg/kg/injection, schedule: Q01DX001 (ip), vehicle: water) was 106 % of control, the T/C (endpoint: median tumor weight change, dose: 31.25 mg/kg/injection, schedule: Q01DX001 (ip), vehicle: water) was 111 % of control and the T/C (endpoint: median tumor weight change, dose: 62.5 mg/kg/injection, schedule: Q01DX001 (ip), vehicle: water) was 88 % of control. The T/C (endpoint: median tumor weight change, dose: 125.0 mg/kg/injection, schedule: Q01DX001 (ip), vehicle: water) was 92 % of control.
